Laboratory results published in the supplement of paper PMC5908809.

How the values were obtained:
[1] = system: normal NK cells expanded with K562-aAPC; test: percent inhibition of viability; higher = more inhibition; details: 72 h, IL-2 2.5 ng/mL
Protocol: (§1)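 Drug sensitivity and resistance testing on K562-aAPC-expanded normal NK cells: 5 concentrations (10-fold steps over a 10,000-fold range), 72 h at 37 °C, viability by CellTiter-Glo normalised to DMSO and benzethonium chloride controls; DSS from the fitted curve.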

DERL-7 (IL-2 2.5 ng/mL) [2] = test: as above; details: 72 h
IMC-1 (IL-2 20 ng/mL) [3] = test: as above; details: 72 h
KAI3 (IL-2 2.5 ng/mL) [4] = test: as above; details: 72 h
KHYG-1 (IL-2 2.5 ng/mL) [5] = test: as above; details: 72 h
NK-92 (IL-2 2.5 ng/mL) [6] = test: as above; details: 72 h
NK-YS (IL-2 2.5 ng/mL) [7] = test: as above; details: 72 h
NKL (IL-2 2.5 ng/mL) [8] = test: as above; details: 72 h
SNK-6 (IL-2 2.5 ng/mL) [9] = test: as above; details: 72 h
YT (IL-2 2.5 ng/mL) [10] = test: as above; details: 72 h
[11] = system: normal primary NK cells, pool 1 (3 donors) (IL-2 2.5 ng/mL); test: as above; details: 72 h
[12] = system: normal primary NK cells, pool 1 (3 donors), resting (IL-2 0 ng/mL); test: as above; details: 72 h
[13] = system: normal primary NK cells, pool 2 (3 donors) (IL-2 2.5 ng/mL); test: as above; details: 72 h
[14] = system: normal primary NK cells, pool 3 (3 donors) (IL-2 2.5 ng/mL); test: as above; details: 72 h
[15] = system: normal NK cells expanded with K562-aAPC; test: drug sensitivity score (DSS) (DSS units); higher = more sensitive; extreme values may be limits of the assay; details: 72 h; IL-2 2.5 ng/mL
Protocol: as §1

DERL-7 (IL-2 2.5 ng/mL) [16] = test: as above; details: 72 h
IMC-1 (IL-2 20 ng/mL) [17] = test: as above; details: 72 h
KAI3 (IL-2 2.5 ng/mL) [18] = test: as above; details: 72 h
KHYG-1 (IL-2 2.5 ng/mL) [19] = test: as above; details: 72 h
NK-92 (IL-2 2.5 ng/mL) [20] = test: as above; details: 72 h
NK-YS (IL-2 2.5 ng/mL) [21] = test: as above; details: 72 h
NKL (IL-2 2.5 ng/mL) [22] = test: as above; details: 72 h
SNK-6 (IL-2 2.5 ng/mL) [23] = test: as above; details: 72 h
YT (IL-2 2.5 ng/mL) [24] = test: as above; details: 72 h
[25] = system: normal primary NK cells, pool 1 (3 donors) (IL-2 2.5 ng/mL); test: as above; details: 72 h
[26] = system: normal primary NK cells, pool 1 (3 donors), resting (IL-2 0 ng/mL); test: as above; details: 72 h
[27] = system: normal primary NK cells, pool 2 (3 donors) (IL-2 2.5 ng/mL); test: as above; details: 72 h
[28] = system: normal primary NK cells, pool 3 (3 donors) (IL-2 2.5 ng/mL); test: as above; details: 72 h

NC(=O)c1cccc2cn(-c3ccc([C@@H]4CCCNC4)cc3)nc12 [Niraparib] (max concentration tested 10000 nM)
percent inhibition of viability [%]
Details | 1 nM | 10 nM | 100 nM | 1000 nM | 10000 nM
DERL-7 (IL-2 2.5 ng/mL) [2] | 0.54 | 3.15 | 0.76 | 8.32 | 68.3
IMC-1 (IL-2 20 ng/mL) [3] | -4.38 | 1.54 | 3.53 | 17.8 | 95.6
KAI3 (IL-2 2.5 ng/mL) [4] | -1.88 | 8.15 | 4.77 | 19.1 | 78.8
KHYG-1 (IL-2 2.5 ng/mL) [5] | -5.84 | 6.09 | -1.02 | 10.6 | 92.7
NK-92 (IL-2 2.5 ng/mL) [6] | 4.26 | 12 | 8.71 | 15.1 | 92.8
NK-YS (IL-2 2.5 ng/mL) [7] | -10.5 | -0.47 | -4.5 | 25.4 | 94.5
NKL (IL-2 2.5 ng/mL) [8] | -9.92 | 5.83 | 22.1 | 72.4 | 82.9
SNK-6 (IL-2 2.5 ng/mL) [9] | -11.2 | -10.2 | 1.34 | 0.26 | 86.7
YT (IL-2 2.5 ng/mL) [10] | -0.31 | 5.58 | -0.5 | -2.07 | 34
[1] | 0.08 | 1.98 | 2.28 | 18.1 | 32.5
[11] | 6.04 | -0.22 | -4.85 | -8.51 | -4.48
[12] | 1.46 | -12.9 | -7.56 | -30.2 | -19.6
[13] | -5.25 | -5.29 | 0.44 | -5.11 | 2.06
[14] | -3.37 | -7.45 | 1.14 | -2 | 0.09

Details | drug sensitivity score
DERL-7 (IL-2 2.5 ng/mL) [16] | 5.15
IMC-1 (IL-2 20 ng/mL) [17] | 8.2
KAI3 (IL-2 2.5 ng/mL) [18] | 7.35
KHYG-1 (IL-2 2.5 ng/mL) [19] | 6.89
NK-92 (IL-2 2.5 ng/mL) [20] | 7.65
NK-YS (IL-2 2.5 ng/mL) [21] | 9.06
NKL (IL-2 2.5 ng/mL) [22] | 16
SNK-6 (IL-2 2.5 ng/mL) [23] | 4.87
YT (IL-2 2.5 ng/mL) [24] | 1.42
[15] | 3.36
[25] | 0
[26] | 0
[27] | 0
[28] | 0

Cn1cc(CNCC2CCN(c3ncc(C(=O)NO)cn3)CC2)c2ccccc21 [Quisinostat] (max concentration tested 1000 nM)
percent inhibition of viability [%]
Details | 0.1 nM | 1 nM | 10 nM | 100 nM | 1000 nM
DERL-7 (IL-2 2.5 ng/mL) [2] | 4.2 | 1.75 | 46.9 | 99.6 | 99.1
IMC-1 (IL-2 20 ng/mL) [3] | -4.98 | -0.52 | -8.31 | 99.6 | 99.7
KAI3 (IL-2 2.5 ng/mL) [4] | -2.72 | 8.43 | 36.8 | 88.8 | 97.3
KHYG-1 (IL-2 2.5 ng/mL) [5] | -1.89 | -1.8 | 12.5 | 99.3 | 97.8
NK-92 (IL-2 2.5 ng/mL) [6] | -10.6 | -6.5 | 15.2 | 70.9 | 93.4
NK-YS (IL-2 2.5 ng/mL) [7] | -1.23 | 0.57 | 20.6 | 92.9 | 97.7
NKL (IL-2 2.5 ng/mL) [8] | -9.03 | -1.25 | 43.9 | 99.4 | 96.7
SNK-6 (IL-2 2.5 ng/mL) [9] | 1.8 | 20.8 | -18.7 | 56.4 | 99.2
YT (IL-2 2.5 ng/mL) [10] | 0.16 | -4.15 | 0.59 | 77.7 | 97.8
[1] | -4.41 | 2.67 | 27.3 | 98.9 | 99.5
[11] | -12.9 | 4.2 | 58.6 | 97.3 | 96.1
[12] | -8.56 | 21.3 | 79 | 90.3 | 90
[13] | -0.78 | 3.43 | 67.6 | 93.8 | 93.9
[14] | -2.24 | -1.5 | 32.9 | 96.6 | 97.4

Details | drug sensitivity score
DERL-7 (IL-2 2.5 ng/mL) [16] | 23.7
IMC-1 (IL-2 20 ng/mL) [17] | 17.2
KAI3 (IL-2 2.5 ng/mL) [18] | 20.6
KHYG-1 (IL-2 2.5 ng/mL) [19] | 19.9
NK-92 (IL-2 2.5 ng/mL) [20] | 15.1
NK-YS (IL-2 2.5 ng/mL) [21] | 19.7
NKL (IL-2 2.5 ng/mL) [22] | 23.6
SNK-6 (IL-2 2.5 ng/mL) [23] | 12.2
YT (IL-2 2.5 ng/mL) [24] | 14.3
[15] | 21.9
[25] | 24.6
[26] | 28.6
[27] | 25.2
[28] | 22.2

CCCNC(=O)Nc1ccc(Oc2ncnc3cc(OC)c(OC)cc23)cc1Cl [KRN-633] (max concentration tested 2500 nM)
percent inhibition of viability [%]
Details | 0.25 nM | 2.5 nM | 25 nM | 250 nM | 2500 nM
DERL-7 (IL-2 2.5 ng/mL) [2] | -3.34 | 5.83 | -0.63 | -4.25 | 1.83
IMC-1 (IL-2 20 ng/mL) [3] | -4.82 | -0.52 | -0.33 | -1.22 | 4.98
KAI3 (IL-2 2.5 ng/mL) [4] | 2.52 | -4.37 | -1.43 | 15 | 20.2
KHYG-1 (IL-2 2.5 ng/mL) [5] | -7.51 | -5.95 | -2.77 | 2.64 | 8.1
NK-92 (IL-2 2.5 ng/mL) [6] | -15.5 | -4.32 | 5.74 | 16.5 | 24.4
NK-YS (IL-2 2.5 ng/mL) [7] | -5.16 | -9.39 | -4.94 | -0.21 | 16.8
NKL (IL-2 2.5 ng/mL) [8] | -1.85 | 1.84 | 11.4 | 24.8 | 35.1
SNK-6 (IL-2 2.5 ng/mL) [9] | 0.67 | -10.6 | -7.54 | -16.4 | -0.64
YT (IL-2 2.5 ng/mL) [10] | -4.93 | -5.67 | -0.27 | 4.17 | 16.1
[1] | -6.27 | -2.98 | -3.15 | 2.74 | 8.42
[11] | 0.25 | 12.5 | 7.25 | 8.57 | 1.55
[12] | -6.06 | 5.96 | 3.62 | 7.14 | -4.86
[13] | -10.4 | 4.55 | 1.17 | -2.44 | 3.9
[14] | -5.17 | 5.1 | -2.11 | -6.67 | -1.34

Details | drug sensitivity score
DERL-7 (IL-2 2.5 ng/mL) [16] | 0
IMC-1 (IL-2 20 ng/mL) [17] | 0
KAI3 (IL-2 2.5 ng/mL) [18] | 2.05
KHYG-1 (IL-2 2.5 ng/mL) [19] | 0
NK-92 (IL-2 2.5 ng/mL) [20] | 2.65
NK-YS (IL-2 2.5 ng/mL) [21] | 0.34
NKL (IL-2 2.5 ng/mL) [22] | 5.19
SNK-6 (IL-2 2.5 ng/mL) [23] | 0
YT (IL-2 2.5 ng/mL) [24] | 0.73
[15] | 0
[25] | 0
[26] | 0
[27] | 0
[28] | 0
